Results as given in ChEMBL document CHEMBL3244218, “beta-Adrenergic blocking agents with acute antihypertensive activity” (1979).

Tests used:
Canis familiaris [1] = assay: Peripheral vasodilating activity in mongrel dog assessed as increase in iliac blood flow at 1600 ug, ia in presence of isoproterenol and 2000 ug/kg timolol; assay type: functional, Canis lupus familiaris, Artery
Canis familiaris [2] = assay: In-vivo beta-adrenergic blocking activity in iv dosed mongrel dog assessed as blockade of isoproterenol-induced hypotension by measuring mean arterial pressure; assay type: functional; conditions: Canis lupus familiaris, Artery
Canis familiaris [3] = assay: In-vivo beta-adrenergic blocking activity in iv dosed mongrel dog assessed as blockade of isoproterenol-induced tachycardia by measuring heart rate; assay type: functional; conditions: Canis lupus familiaris
Rattus norvegicus [4] = assay: Antihypertensive activity in spontaneously hypertensive rat assessed as maximum fall in mean arterial pressure at 1.25 mg/kg, po; assay type: functional, Artery
Rattus norvegicus [5] = assay: Antihypertensive activity in spontaneously hypertensive rat assessed as maximum fall in mean arterial pressure at 20 mg/kg, po; assay type: functional, Artery
Canis familiaris [6] = species on record: Canis familiaris; assay: Peripheral vasodilating activity in mongrel dog assessed as increase in iliac blood flow at 1600 ug, ia; assay type: functional, Canis lupus familiaris, Artery
Canis familiaris [7] = assay: In-vivo beta-adrenergic blocking activity in iv dosed mongrel dog assessed as blockade of isoproterenol-induced bronchodilation by measuring pulmonary pressure; assay type: functional; conditions: Canis lupus familiaris
Rattus norvegicus [8] = assay: Antihypertensive activity in spontaneously hypertensive rat assessed as maximum fall in mean arterial pressure at 5 mg/kg, po; assay type: functional, Artery
Rattus norvegicus [9] = assay: Antihypertensive activity in spontaneously hypertensive rat assessed as maximum fall in mean arterial pressure at 0.312 mg/kg, po; assay type: functional, Artery
Canis familiaris [10] = assay: Peripheral vasodilating activity in mongrel dog assessed as increase in iliac blood flow at 1600 ug, ia in presence of isoproterenol and 1000 ug/kg timolol; assay type: functional, Canis lupus familiaris, Artery
Canis familiaris [11] = assay: Peripheral vasodilating activity in mongrel dog assessed as increase in iliac blood flow at 32 ug, ia in presence of isoproterenol and 2000 ug/kg timolol; assay type: functional, Canis lupus familiaris, Artery
Canis familiaris [12] = species on record: Canis familiaris; assay: Peripheral vasodilating activity in mongrel dog assessed as increase in iliac blood flow at 8 ug, ia; assay type: functional, Canis lupus familiaris, Artery
Canis familiaris [13] = species on record: Canis familiaris; assay: Peripheral vasodilating activity in mongrel dog assessed as increase in iliac blood flow at 16 ug, ia; assay type: functional, Canis lupus familiaris, Artery
Canis familiaris [14] = species on record: Canis familiaris; assay: Peripheral vasodilating activity in mongrel dog assessed as increase in iliac blood flow at 32 ug, ia; assay type: functional, Canis lupus familiaris, Artery
Canis familiaris [15] = assay: Peripheral vasodilating activity in mongrel dog assessed as increase in iliac blood flow at 8 ug, ia in presence of isoproterenol and 2000 ug/kg timolol; assay type: functional, Canis lupus familiaris, Artery
Canis familiaris [16] = assay: Peripheral vasodilating activity in mongrel dog assessed as increase in iliac blood flow at 16 ug, ia in presence of isoproterenol and 2000 ug/kg timolol; assay type: functional, Canis lupus familiaris, Artery
Canis familiaris [17] = assay: Peripheral vasodilating activity in mongrel dog assessed as increase in iliac blood flow at 1600 ug, ia in presence of isoproterenol and 500 ug/kg timolol; assay type: functional, Canis lupus familiaris, Artery
Canis familiaris [18] = species on record: Canis familiaris; assay: Peripheral vasodilating activity in mongrel dog assessed as increase in iliac blood flow at 250 ug, ia; assay type: functional, Canis lupus familiaris, Artery

Row | Compound | Activity (Canis familiaris [1]) [mL/min] | ED50 (Canis familiaris [2]) [mg/kg] | ED50 (Canis familiaris [3]) [mg/kg] | Activity (Rattus norvegicus [4]) [mmHg] | Activity (Rattus norvegicus [5]) [mmHg] | Activity (Canis familiaris [6]) [mL/min] | ED50 (Canis familiaris [7]) [mg/kg] | Activity (Rattus norvegicus [8]) [mmHg] | Activity (Rattus norvegicus [9]) [mmHg] | Activity (Canis familiaris [10]) [mL/min] | Activity (Canis familiaris [11]) [mL/min] | Activity (Canis familiaris [12]) [mL/min] | Activity (Canis familiaris [13]) [mL/min] | Activity (Canis familiaris [14]) [mL/min] | Activity (Canis familiaris [15]) [mL/min] | Activity (Canis familiaris [16]) [mL/min] | Activity (Canis familiaris [17]) [mL/min] | Activity (Canis familiaris [18]) [mL/min]
1 | CC(C)(C)NC[C@H](O)COc1ccc(-c2ncc[nH]2)cc1 | 0 | > 1 | 0.067 | 19 | 41 | 30 | – | – | – | – | – | – | – | – | – | – | – | –
2 | COc1ccc(-c2cnc(-c3ccc(OC[C@@H](O)CNC(C)(C)C)cc3)[nH]2)cc1.O=C(O)/C=C\C(=O)O | 16 | 0.525 | 0.027 | 10 | 39 | 26 | 0.48 | 28 | – | – | – | – | – | – | – | – | – | –
3 | Cc1cnc(-c2ccc(OC[C@@H](O)CNC(C)(C)C)cc2)[nH]1.O=C(O)/C=C\C(=O)O | 32 | 1 | 0.03 | 24 | 41 | 59 | 0.277 | 19 | – | – | – | – | – | – | – | – | – | –
4 | CC(C)(C)NC[C@H](O)COc1ccc(-c2ncc(-c3cccs3)[nH]2)cc1.O=C(O)/C=C\C(=O)O | 15 | 0.234 | 0.014 | 20 | – | 23 | 0.433 | 33 | 9 | – | – | – | – | – | – | – | – | –
5 | Cc1cc(OC[C@@H](O)CNC(C)(C)C)ccc1-c1ncc(C(F)(F)F)[nH]1 | – | 0.0927 | 0.0157 | 36 | – | 36 | 0.0364 | 51 | – | 39 | – | – | – | – | – | – | – | –
6 | CC(C)(C)NCC(O)COc1ccc(-c2nc(C(F)(F)F)c[nH]2)cc1 (racemic) | 15 | 0.042 | 0.0076 | 36 | – | 79 | 0.071 | 49 | 21 | – | 15 | 52 | 58 | 63 | 10 | 17 | – | –
7 | CC(C)(C)NCC(O)COc1ccc(-c2ncc[nH]2)cc1 (racemic) | – | > 1 | 0.098 | – | 18 | 36 | > 1 | – | – | – | – | – | – | – | – | – | 31 | –
8 | CC(C)(C)NCC(O)COc1ccc(-c2ncc(C(F)(F)F)[nH]2)c(Cl)c1 (racemic) | – | 0.552 | 0.027 | 28 | – | 2 | 0.054 | 36 | – | – | – | – | – | – | – | – | – | -2
9 | CC(C)(C)NCC(O)COc1ccc(-c2ncc(-c3ccccc3)[nH]2)cc1 (racemic) | 42 | 0.083 | 0.035 | 20 | 54 | 46 | 0.095 | 30 | – | – | – | – | – | – | – | – | – | –
10 | Cc1cc(OCC(O)CNC(C)(C)C)cc(C)c1-c1ncc(C(F)(F)F)[nH]1 (racemic) | – | > 1 | 0.091 | 31 | 30 | 5 | 0.163 | 20 | – | 10 | – | – | – | – | – | – | – | –
11 | COc1ccc(-c2cnc(-c3ccc(OCC(O)CNC(C)(C)C)cc3)[nH]2)cc1 (racemic) | 20 | > 1 | 0.04 | 21 | – | 25 | – | 29 | 12 | – | – | – | – | – | – | – | – | –
12 | CC(C)(C)NCC(O)COc1ccc(-c2ncc(-c3ccc(Cl)cc3)[nH]2)cc1 (racemic) | – | 0.137 | 0.0562 | 32 | 32 | – | 0.0827 | 35 | – | – | – | – | – | – | – | – | – | –
13 | CC(C)(C)NCC(O)COc1ccc(-c2ncc(-c3ccc(F)cc3)[nH]2)cc1 (racemic) | 32 | 0.139 | 0.019 | – | 13 | 42 | – | – | – | – | – | – | – | – | – | – | – | –
14 | CC(C)(C)NCC(O)COc1ccc(-c2ncc(-c3ccc(Cl)c(Cl)c3)[nH]2)cc1 (racemic) | 15 | 0.117 | 0.123 | 36 | 49 | 56 | 0.097 | 35 | – | – | – | – | – | – | – | – | – | –
15 | CC(C)(C)NCC(O)COc1ccc(-c2ncc(-c3c(F)c(F)c(F)c(F)c3F)[nH]2)cc1 (racemic) | 48 | 0.3 | 0.082 | 21 | 40 | 56 | – | 19 | – | – | – | – | – | – | – | – | – | –
16 | CC(C)(C)NCC(O)COc1ccc(-c2ncc(-c3ccco3)[nH]2)cc1 (racemic) | 40 | 0.3 | 0.015 | – | 35 | 80 | – | – | – | – | – | – | – | – | – | – | – | –

Row | Compound | Activity (Canis familiaris [1]) [mL/min] | ED50 (Canis familiaris [2]) [mg/kg] | ED50 (Canis familiaris [3]) [mg/kg] | Activity (Rattus norvegicus [4]) [mmHg] | Activity (Rattus norvegicus [5]) [mmHg] | Activity (Canis familiaris [6]) [mL/min] | ED50 (Canis familiaris [7]) [mg/kg] | Activity (Rattus norvegicus [8]) [mmHg] | Activity (Rattus norvegicus [9]) [mmHg] | Activity (Canis familiaris [10]) [mL/min] | Activity (Canis familiaris [11]) [mL/min] | Activity (Canis familiaris [12]) [mL/min] | Activity (Canis familiaris [13]) [mL/min] | Activity (Canis familiaris [14]) [mL/min] | Activity (Canis familiaris [15]) [mL/min] | Activity (Canis familiaris [16]) [mL/min] | Activity (Canis familiaris [17]) [mL/min] | Activity (Canis familiaris [18]) [mL/min]
17 | CC(C)(C)NCC(O)COc1ccc(-c2ncc(-c3ccccn3)[nH]2)cc1 (racemic) | – | – | – | 6 | 40 | – | – | 27 | – | – | – | – | – | – | – | – | – | –
18 | CC(C)(C)NCC(O)COc1ccc(-c2ncc(-c3cccnc3)[nH]2)cc1 (racemic) | 40 | > 1 | 0.054 | – | 13 | 64 | – | 28 | – | – | – | – | – | – | – | – | – | –
19 | COC(=O)c1cnc(-c2ccc(OCC(O)CNC(C)(C)C)cc2)[nH]1 (racemic) | 29 | > 1 | 0.04 | – | 36 | 80 | – | 17 | – | – | – | – | – | – | – | – | – | –
20 | CC(C)(C)NCC(O)COc1ccc(-c2ncc(C(N)=O)[nH]2)cc1 (racemic) | – | > 1 | 0.262 | – | 14 | – | > 1 | – | – | – | – | – | – | – | – | – | – | –
21 | CC(C)(C)NCC(O)COc1cc(Cl)c(-c2ncc(C(F)(F)F)[nH]2)c(Cl)c1 (racemic) | – | – | – | 16 | – | – | – | 30 | – | – | – | – | – | – | – | – | – | –
22 | CC(C)(C)NCC(O)COc1ccc(-c2ncc(C(F)(F)F)[nH]2)c(Cl)c1Cl (racemic) | – | – | – | – | 49 | – | – | 16 | – | – | – | – | – | – | – | – | – | –
23 | CC(C)(C)NCC(O)COc1ccc(-c2ncc(C(F)(F)F)[nH]2)cc1Cl (racemic) | – | 0.017 | 0.016 | – | 6 | 17 | 0.015 | 5 | – | – | – | – | – | – | – | – | – | 5
24 | Cc1cc(OCC(O)CNC(C)(C)C)ccc1-c1ncc(C(F)(F)F)[nH]1 (racemic) | – | 0.361 | 0.0227 | 32 | 44 | 27 | 0.0298 | 43 | – | – | – | – | – | – | – | – | – | 11
25 | Cc1c(OCC(O)CNC(C)(C)C)ccc(-c2ncc(C(F)(F)F)[nH]2)c1C (racemic) | – | 0.582 | 0.071 | 27 | 30 | 23 | 0.055 | 24 | – | 19 | – | – | – | – | – | – | – | –
26 | Cc1cc(-c2ncc(C(F)(F)F)[nH]2)ccc1OCC(O)CNC(C)(C)C (racemic) | – | 0.022 | 0.011 | 23 | – | 52 | – | 36 | – | 20 | – | – | – | – | – | – | – | 6
27 | CC(C)(C)NCC(O)COc1ccc(-c2ncc(C(F)(F)F)[nH]2)c2c1CCCC2 (racemic) | – | 0.167 | 0.228 | – | 22 | -15 | 0.1 | – | – | -10 | – | – | – | – | – | – | – | –
28 | CC(C)(C)NCC(O)COc1ccc(-c2ncc(C(F)(F)F)[nH]2)c2ccccc12 (racemic) | – | > 1 | 0.186 | – | 40 | 35 | – | 21 | – | 40 | – | – | – | – | – | – | – | –
29 | CC(C)(C)NCC(O)COc1ccc(-c2nc(-c3cccs3)c[nH]2)cc1 (racemic) | 10 | 0.635 | 0.016 | 36 | 58 | 28 | – | 35 | 12 | – | – | – | – | – | – | – | – | –
30 | Cc1c[nH]c(-c2ccc(OCC(O)CNC(C)(C)C)cc2)n1 (racemic) | 62 | > 1 | 0.106 | – | 27 | 101 | – | 6 | – | – | – | – | – | – | – | – | 75 | –
31 | NNc1nncc2ccccc12 [HYDRALAZINE] | – | – | – | – | – | 66 | – | – | – | – | – | – | – | – | – | – | – | –
32 | CC(=O)Nc1ccc(OCC(O)CNC(C)C)cc1 (configuration not stated) [PRACTOLOL] | – | 1 | 0.115 | – | – | – | 1.08 | – | – | – | – | – | – | – | – | – | – | –
